Laboratory results: patent publication EP2311435A1, “Pharmaceutical composition comprising poorly soluble active ingredient and hyperbranched polymer” (LEK Pharmaceuticals d.d., priority 2009, dated 2011)
Converted amounts (≈) assume the structure as drawn.

Columns and labels:
physchem [1] = settings: pH 6.8, aqueous buffer
[2] = In vitro dissolution of glimepiride, USP Apparatus II (paddle), phosphate buffer pH 6.8; format: physicochemical; settings: mixed with hyperbranched polymer at the ratio of the invention, 37 °C, figures 3 and 4
Description: Approximately 50 % of the active ingredient (4 mg) is dissolved after 60 minutes of testing at following conditions: 37 °C in the USP Dissolution Tester, Apparatus II (Paddle method) using 900 ml of phosphate buffer (pH 6.8) as the dissolution medium and at a rotation rate of 75 rpm.
Dissolution of glimepiride was assessed at 37 °C by the USP Dissolution Tester, Apparatus II (Paddle method) at a rotation rate of 75 rpm using 900 ml of phosphate buffer (pH 6.8) as dissolution medium. The tested samples were added directly to the buffer in the correct amount to achieve a final concentration of 4,4 µg / mL glimepiride (equals therapeutic dose dissolved in 900 mL). Aliquots, each of 2 ml, from the dissolution medium were withdrawn at time intervals of 5, 15, 30, 60 minutes. The samples were withdrawn through syringe and filtered through Millipore filter and analyzed for glimepiride content using HPLC method.
The amount of dissolved glimepiride was estimated by reversed-phase HPLC (Waters Alliance) in a binary mode, with a photodiode array detector and a communication bus module. […]

physchem [3] = settings: 37 °C, pH 7, aqueous buffer, thermodynamic from solid
Description: Solubility as meant herein is measured using USP apparatus 2 (U.S. Pharmacopoeia 32-NF27) with agitation at 75 RPM in the dissolution medium of a phosphate buffer maintained at pH 6.8 and 37° C. Such low solubility makes preparing a useful pharmaceutical composition of acceptable size and efficacy especially difficult.
In a preferred embodiment, this is irrespective of the pharmacological effect it might have or ailment it is used to prevent or treat.
The pharmaceutical compositions, powders or granulates according to the invention comprise the hyperbranched polymer/API in specific weight ratios.

[4] = pH 6.8
[5] = In vitro dissolution of indapamide, USP Apparatus II (paddle), phosphate buffer pH 6.8; format: physicochemical; settings: with polyesteramide hyperbranched polymers, figure 5
Description: Dissolution of indapamide was assessed at 37 °C by the USP Dissolution Tester, Apparatus II (Paddle method), using 900 ml of phosphate buffer (pH 6.8) as the dissolution medium and at a rotation rate of 75 rpm. The tested samples were added directly to buffer in an amount in order to achieve a final concentration of 15 µg / mL indapamide. Aliquots, each of 2 ml, from the dissolution medium were withdrawn at time intervals of 5, 15, 30, 60 minutes. The samples were withdrawn through syringe and filtered through Millipore filter in order to separate the undissolved sample and analyzed for indapamide using UV spectrofotometry at 287 nm.

[6] = In vitro dissolution of pimobendan, USP Apparatus II (paddle), phosphate buffer pH 6.8; format: physicochemical; settings: admixed with Hybrane S1200, 2% and 5% of active ingredient
Description: The samples of pimobendan were prepared as in examples 6 to 13. Dissolution of pimobendan was assessed at 37 °C by the USP Dissolution Tester, Apparatus II (Paddle method) at a rotation rate of 75 rpm, using 900 ml of phosphate buffer (pH 6.8) as the dissolution medium. The tested samples were added directly to the buffer in the correct amount to achieve a final concentration of 5.5 µg / mL pimobendan (equals therapeutic dose dissolved in 900 mL). Aliquots, each of 2 ml, from the dissolution medium were withdrawn at time intervals of 5, 15, 30, 60 minutes. The samples were withdrawn through syringe and filtered through Millipore filter in order to separate the undissolved sample and analyzed for pimobendan using HPLC method.

[7] = Solubility in the presence of Hybrane S1200

| solubility (physchem [1]; [7]) | solubility (physchem [1]; Solubility without polymer) | solubility of glimepiride [2] | solubility (physchem [3]) | Increase [4] | solubility of the indapamide [5] | solubility of the active ingredient [6] | Structure (SMILES) |
| --- | --- | --- | --- | --- | --- | --- | --- |
| 10 µg/mL | 1 µg/mL (≈ 2.04 µM) | significantly increased | 1 µg/mL (≈ 2.04 µM) | 10 fold | – | – | CCC1=C(C)CN(C(=O)NCCc2ccc(S(=O)(=O)NC(=O)N[C@H]3CC[C@H](C)CC3)cc2)C1=O [glimepiride] |
| 3 µg/mL | 0.03 µg/mL (≈ 0.0818 µM) | – | 3 µg/mL (≈ 8.18 µM) | 100 fold | – | – | O=C1C(O)=C([C@H]2CC[C@H](c3ccc(Cl)cc3)CC2)C(=O)c2ccccc21 [atovaquone] |
| 210 µg/mL | 4 µg/mL (≈ 12 µM) | – | 210 µg/mL (≈ 628 µM) | 50 fold | – | significantly increases | COc1ccc(-c2nc3ccc(C4=NNC(=O)CC4C)cc3[nH]2)cc1 (stereo not shown) [pimobendan] |

More lines, now with the values behind:

| Structure (SMILES) | solubility (physchem [1]; [7]) | solubility (physchem [1]; Solubility without polymer) | solubility of glimepiride [2] | solubility (physchem [3]) | Increase [4] | solubility of the indapamide [5] | solubility of the active ingredient [6] |
| --- | --- | --- | --- | --- | --- | --- | --- |
| CC1Cc2ccccc2N1NC(=O)c1ccc(Cl)c(S(N)(=O)=O)c1 (stereo not shown) [indapamide] | 700 µg/mL | 5 µg/mL (≈ 13.7 µM) | – | 700 µg/mL (≈ 1910 µM) | 140 fold | remarkably enhance | – |
| Cc1ccc(S(=O)(=O)NC(=O)NN2CC3CCCC3C2)cc1 (stereo not shown) [gliclazide] | – | – | – | 50 µg/mL (≈ 155 µM) | – | – | – |
| COc1ccc(Cl)cc1C(=O)NCCc1ccc(S(=O)(=O)NC(=O)NC2CCCCC2)cc1 [glibenclamide] | – | – | – | 60 µg/mL (≈ 121 µM) | – | – | – |
| CN1CC(=O)N2[C@H](c3ccc4c(c3)OCO4)c3[nH]c4ccccc4c3C[C@@H]2C1=O [tadalafil] | 110 µg/mL | 2 µg/mL (≈ 5.14 µM) | – | 110 µg/mL (≈ 282 µM) | 55 fold | – | – |
